Experiments:
[1] = tested on: human breast MCF-7 carcinoma cells; assay: MTT assay, cell growth inhibition / cytotoxicity; type: cell-based; settings: MCF7, 24 h, read-out: IC50, cytotoxicity
Procedure: Example 1 relates to cell growth inhibition of EVO according to the present invention. Breast cancer MCF-7 cells are cultured in Dulbecco's modified Eagle medium (DMEM) supplemented with 10% heat-inactivated fetal bovine serum (FBS), and 100 μg/ml penicillin-streptomycin. Conditions were maintained in a humidified 95% air/5% CO2 incubator at 37° C. The MTT [3-(4,5-dimethylthiazol-2-yl)-2,5-diphenyl tetrazolium bromide] assay was described previously to test the cytotoxicity of reagents and cell viability (Lin, Tsai, Chen, Chang, Lee et al., 2008). Cells (5000 cells/well) are grown on a 96-well plate supplemented with DMEM medium (with 1% FBS) for 24 hours. Then, cells are treated with CPT or EVO ([…]), and the viability is determined by the reduction of MTT. An MTT stock solution (5 mg of MTT/ml of PBS) is added to the growing cultures (at a final concentration of 0.5 mg/ml). The OD is measured with a spectrophotometer at 560 nm. A blank with DMSO alone is measured and subtracted from all values.
The cytotoxic abilities of EVO and CPT are tested against human breast MCF-7 carcinoma cells, which express high levels of TopoI. CPT is used as a reference drug. Both compounds display efficient cytotoxicity after 24 h of drug exposure. […] Consequently, EVO is slightly less cytotoxic than CPT against breast MCF-7 carcinoma cells.

[2] = molecular target: T1, DNA TopoI from the vaccinia virus (Vaccinia virus, UniProt P68698); type: biochemical
T1 construct: purchased EPICENTRE Biotechnologies, Madison, Wis

[3] = molecular target: T2, purified recombinant eukaryotic TopoI (Homo sapiens, UniProt P11387); type: biochemical; settings: supercoiled DNA relaxation, TopoI prepared from recombinant DNA
T2 sequence (P11387 1-765): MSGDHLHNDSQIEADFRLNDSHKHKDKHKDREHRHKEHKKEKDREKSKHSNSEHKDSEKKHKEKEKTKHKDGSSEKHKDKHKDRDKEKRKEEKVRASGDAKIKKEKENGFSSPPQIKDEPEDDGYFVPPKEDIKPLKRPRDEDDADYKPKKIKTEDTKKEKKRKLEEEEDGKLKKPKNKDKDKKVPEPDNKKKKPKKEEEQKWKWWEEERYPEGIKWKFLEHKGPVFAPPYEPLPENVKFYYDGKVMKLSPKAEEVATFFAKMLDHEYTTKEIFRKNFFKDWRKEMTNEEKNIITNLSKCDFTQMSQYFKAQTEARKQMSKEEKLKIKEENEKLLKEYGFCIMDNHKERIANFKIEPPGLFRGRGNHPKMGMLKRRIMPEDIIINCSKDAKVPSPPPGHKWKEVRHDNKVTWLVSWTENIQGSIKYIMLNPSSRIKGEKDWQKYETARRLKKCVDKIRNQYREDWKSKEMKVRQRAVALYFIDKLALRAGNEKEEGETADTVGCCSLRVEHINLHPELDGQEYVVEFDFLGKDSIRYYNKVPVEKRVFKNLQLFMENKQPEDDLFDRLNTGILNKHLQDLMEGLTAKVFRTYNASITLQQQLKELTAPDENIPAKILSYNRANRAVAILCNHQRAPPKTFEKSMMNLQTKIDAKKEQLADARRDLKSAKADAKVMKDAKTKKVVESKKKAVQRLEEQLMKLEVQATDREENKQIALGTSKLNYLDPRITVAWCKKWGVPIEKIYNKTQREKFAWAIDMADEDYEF

[4] = molecular target: T3, free-form TopoI in MCF-7 cells (Homo sapiens, UniProt P11387); assay: depletion assay for free-form TopoI (immunoblotting); type: cell-based
T3 construct: endogenous in cells; host or cells: MCF-7
T3 sequence (P11387 1-765): T2 sequence (P11387 1-765)
Procedure: Example 3 relates to detection of the levels of free-form TopoI from breast cancer cells reduced by EVO according to the present invention. Provided that EVO is able to fix TopoI on DNA, the level of free-form TopoI should be decreased. Monolayers that are breast cancer MCF-7 cells of 50%—80% confluent are treated with drugs for a short time, and then cellular proteins are extracted from the MCF-7 cells. After that, the cellular proteins are separated electrophoretically in a 7.5% SDS polyacrylamide gel and electro-transferred to a polyvinylidene difluoride (PVDF) membrane. The membrane is incubated with the primary antibody (rabbit anti-human topoisomerase I antisera) at room temperature for 2 hours, and then incubated with a horseradish peroxidase-conjugated secondary immunoglobulin G (IgG) antibody. The immunoreactive bands are visualized with enhanced chemiluminescent reagents and photographed using a gel documentation system.
A depletion assay for free-form TopoI is performed to confirm the effect of EVO on DNA topological catalysis of TopoI. This assay is based on the ability of CPT to trap TopoI and DNA to form a CPT-TopoI-DNA triple complex, to see if EVO inhibits TopoI activity through a similar mechanism. […] Depletion of TopoI protein by EVO is also detected in a concentration-dependent manner after 1 hour of treatment. […]

[5] = molecular target: T4, TopoI-DNA complex in 3H-thymidine-labeled MCF-7 cells (Homo sapiens, UniProt P11387); assay: KCl/SDS precipitation assay, TopoI-DNA complex trapping; type: cell-based; settings: 30 μM, 60 minutes, FIG. 4
T4 construct: endogenous in cells; host or cells: MCF-7
T4 sequence (P11387 1-765): T2 sequence (P11387 1-765)
Procedure: Example 4 relates to using a KCl/SDS precipitation assay to show TopoI-DNA complex trapping activity of EVO according to the present invention. The formation of a cleavable complex in intact cells is quantified by a KCl-sodium dodecylsulfate (SDS) precipitation technique, a modified procedure described previously by Yoshinari et al. (1993). Cellular DNA is labeled by adding ^3H-thymidine to the medium to a final concentration of 10 μCi/ml. After an overnight incubation, cells are plated to a density of 1×10^5 cells/well in a 24-well plate for another overnight incubation, and treated with various concentrations of EVO (0˜30 μM) for 60 minutes. The medium is removed from each well, and cells are washed with phosphate-buffered saline (PBS) and lysed with 1 ml of prewarmed (65° C.) lysis solution (1.25% SDS, 5 mM EDTA, 0.4 mg/ml salmon sperm DNA). Lysate is sheared using a 21-gauge needle. The samples as background control are treated by the above procedure but with proteinase K (400 μg/ml) in the lysis buffer, and are incubated at 50° C. for 2 hour. KCl (325 mM), at 250 μl, is added to each sample, vortexed vigorously, cooled on ice for 10 minutes, and centrifuged at 2500 rpm for 10 minutes at 4° C. […] The pellet is resuspended in 400 μl prewarmed H2O (65° C.) and combined with 4 ml scintillation liquid, and the radioactivity counts are determined using a liquid scintillation counter. […]

Row | SMILES | IC50 [1] | inhibition of supercoiled plasmid DNA relaxation catalyzed by TopoI [2] | inhibition activity toward purified recombinant eukaryotic TopoI [3] | relative level of DNA-unlinked TopoI protein versus the control ([4]; 0˜10 μM, 1 hour of treatment, FIG. 3B) | TopoI protein level in comparison to the untreated control ([4]; 10 μM, 120-minute treatment, FIG. 3A) | 3H-thymidine-labeled DNA trapped in a covalent complex with TopoI [5] | inhibitory activity on TopoI catalytic supercoiled plasmid relaxation, compared with CPT and EVO [2]
1 | CC[C@@]1(O)C(=O)OCc2c1cc1n(c2=O)Cc2cc3ccccc3nc2-1 [CPT, Camptothecin, reference compound] | 3.23 µM | retain a greater amount of uncatalytic supercoiled DNA in a dose-dependent manner | – | – | – | – | –
2 | CN1c2ccccc2C(=O)N2CCc3c([nH]c4ccccc34)C21 (stereo not drawn) [EVO, Evodiamine] | 6.02 µM | inhibitory activity on TopoI catalytic relaxation in a dose-dependent manner | inhibited | < 40% | < 20% | 43.6% | –
3 | O=c1c2ccccc2nc2n1CCc1c-2[nH]c2ccccc12 [rutaecarpine] | – | – | – | – | – | – | substantially equivalent to those of CPT and EVO
